According to patent publication US8232275B2, “2,2-bis-(hydroxymethyl)cyclopropylidenemethyl-purines and -pyrimidines as antiviral agents” (Wayne State University, priority 2002, dated 2012):
Marks after values point to notes of the source that are not given here. Values belong to the compound of their own block, whether it stands above or below them.

Legend:
HSV-1 = HSV-1 ELISA in BSC-1 cells; format: cell-based, herpes simplex virus type 1 (HSV-1); conditions: Human alphaherpesvirus 1
Protocol: (§1) Cells and viruses. The routine growth and passage of KB cells was performed in monolayer cultures using minimal essential medium (MEM) with either Hanks salts [MEM(H)] or Earle salts [MEM(E)] supplemented with 10% calf serum. The sodium bicarbonate concentration was varied to meet the buffering capacity required. Cultures of diploid human foreskin fibroblasts (HFF) or MRC-5 cells were grown in medium consisting of MEM(E) with 10% fetal bovine serum. Cells were passaged at 1:2 to 1:10 dilutions according to conventional procedures by using 0.05% trypsin plus 0.02% EDTA in a HEPES buffered salt solution (HBS) (Shipman, C., Jr., Proc. Soc. Exp. Biol. 130:305-310 (1969)) as described previously. Turk, S. R., et al., Antimicrob. Agents Chemother. 31:544-550 (1987). HFF and MRC-5 cells were passaged only at 1:2 dilutions. CEM cells were maintained in suspension culture as detailed previously. Kucera, L. S., et al., AIDS Res. Human Retroviruses 9:307-314 (1993).
(§2) Virological procedures. Stock HCMV was prepared by infecting HFF cells at a multiplicity of infection (m.o.i.) of <0.01 plaque-forming units (p.f.u.) per cell. Cell growth medium was changed every four days until cytopathology was evident in all cells (approximately 21 days). Supernatant fluids were retained as the virus stock. High titer HSV-1 stocks were prepared by infecting KB cells at an m.o.i. of <0.1 as detailed previously. Turk, S. R., et al., Antimicrob. Agents Chemother. 31:544-550 (1987). Virus titers were determined using monolayer cultures of HFF cells for HCMV and monolayer cultures of BSC-1 cells for HSV-1 as described earlier. Prichard, M. N. et al., J. Virol. Methods 28:101-106 (1990). Briefly, HFF or BSC-1 cells were planted as described above in 96-well cluster dishes and incubated overnight at 37° C. in a humidified 3% CO2-97% air atmosphere. The next day cultures were inoculated with HCMV or HSV-1 and serially diluted 1:3 across the remaining eleven columns of the 96-well plate. Cultures were incubated at 37° C. for 2 hr to permit virus adsorption and then virus inoculum was replaced with 0.2 mL of fresh medium. Cultures were incubated for seven days for HCMV, two or three days for HSV-1, medium was removed, and the cell sheets were stained with 0.1% crystal violet in 20% methanol. Plaques were enumerated under 20-fold magnification in wells having the dilution which gave 5 to 20 plaques per well. Virus titers were calculated according to the following formula: Titer (p.f.u./mL)=number of plaques×5×3^n; where n represents the nth dilution of the virus used to infect the well in which plaques were enumerated.
Assays for Antiviral Activity. (b) HSV-1. An enzyme-linked immunosorbent assay (ELISA) was employed to detect HSV-1. 96-well cluster dishes were planted with BSC-1 cells at 10,000 cells per well, in a total volume of 200 μL per well of MEM(E) plus 10% calf serum. After overnight incubation at 37° C., drug and HSV-1 was added at the rate of 100 PFU/well. ELISA plates were blocked with 200 μL per well of 10% calf serum and 0.05% tween in HBS. After incubation for 30 minutes, the blocking agent was rinsed two times with HBS-T. A 1:400 dilution of AP conjugated rabbit anti-HSV-1 antibody in HBS-F was added. Plates were sealed with adhesive sheet, and incubated on rocker for one hour at 37° C. Plates were developed in the dark with […] per well of substrate solution containing p-nitrophenyl phosphate. Plates were read at 492 nm. Drug effects were calculated as a percentage of the reduction in virus in the presence of each drug concentration compared to the titer obtained in the absence of drug. Acyclovir was used as a positive control in all experiments.
(§3) Data Analysis. Dose-response relationships were constructed by linearly regressing the percent inhibition of parameters derived in the preceding sections against log drug concentrations. Fifty-percent inhibitory (IC50) concentrations were calculated from the regression lines. […]

KB cells = assay: Cytotoxicity in KB cells, growth during two population doublings (crystal violet); format: cell-based
Protocol: (§4) Cytotoxicity assays. Two different assays were used to explore cytotoxicity of selected compounds as we have detailed previously. (i) Cytotoxicity produced in stationary HFF cells was determined by microscopic inspection of cells used in plaque assays which were not affected by the virus. Turk, S. R., et al., Antimicrob. Agents Chemother. 31:544-550 (1987). (ii) The effect of compounds during two population doublings of KB cells was determined by crystal violet staining and spectrophotometric quantitation of dye eluted from stained cells. Prichard, M. N., et al., Antimicrob. Agents Chemother. 35:1060-1065 (1991). Data Analysis. Dose-response relationships were constructed by linearly regressing the percent inhibition of parameters derived in the preceding sections against log drug concentrations. Fifty-percent inhibitory (IC50) concentrations were calculated from the regression lines. Samples containing positive controls (acyclovir for HSV-1, ganciclovir for HCMV, and 2-acetylpyridine thiosemicarbazone for cytotoxicity) were used in all assays. Results from sets of assays were rejected if inhibition by the positive control deviated from its mean response by >±1.5 standard deviations.

[1] = Cytotoxicity in stationary HFF cells, microscopic (visual) inspection; format: cell-based; conditions: human, stationary HFF cells (uninfected cells of the plaque assays), read-out: IC50 (μM) HFF (visual)
Protocol: as §4

HCMV = HCMV plaque reduction assay in HFF cells; format: cell-based, human cytomegalovirus (HCMV); conditions: Human betaherpesvirus 5, HFF host cells
Protocol: as §1, §2
Assays for Antiviral Activity. (a) HCMV. The effect of compounds on the replication of HCMV has been measured using a plaque reduction assay. HFF cells in 24-well cluster dishes were infected with approximately 100 p.f.u. of HCMV per cm^2 cell sheet using the procedures detailed above. Following virus adsorption, compounds dissolved in growth medium were added to duplicate wells in three to six selected concentrations. Following incubation at 37° C. for 7 to 10 days, cell sheets were fixed, stained with crystal violet and microscopic plaques enumerated as described above. Drug effects were calculated as a percentage of reduction in number of plaques in the presence of each drug concentration compared to the number observed in the absence of drug. Ganciclovir (DHPG) was used as a positive control in all experiments.
as §3, with “lines. Samples containing positive controls (acyclovir for HSV-1, ganciclovir for HCMV, and 2-acetylpyridine thiosemicarbazone for cytotoxicity) were used in all assays.” for “lines.”

- melting point: 195 to 196 °C
Structure (SMILES): Nc1nc(NC2CC2)c2ncn(/C=C3/CC3(CO)CO)c2n1 [Compound 1h, (Z)-2-Amino-6-cyclopropylamino-9-{[2,2-bis-(hydroxymethyl)-cyclopropylidene]methyl}purine]

- melting point: 249 to 251 °C
Structure (SMILES): Nc1ccn(/C=C2\CC2(CO)CO)c(=O)n1 [Compound 2e, (E)-1-{[2,2-bis-(hydroxymethyl)cyclopropylidene]methyl}cytosine]

- IC50 (HSV-1): > 100 µM
- melting point: 188 to 189 °C
Structure (SMILES): COc1nc(N)nc2c1ncn2/C=C1/CC1(CO)CO [Compound 1g, (Z)-2-amino-6-methoxy-9-{[2,2-bis-(hydroxymethyl)cyclopropylidene]-methyl}purine]
- CC50 [1]: > 100 µM
- IC50 (μM) KB (growth) (KB cells; human): >100 µM
- IC50 (HCMV): 3.5 µM

- melting point: 179 to 180 °C
Structure (SMILES): COc1nc(N)nc2c1ncn2/C=C1\CC1(CO)CO [Compound 2g, (E)-2-amino-6-methoxy-9-{[2,2-bis-(hydroxymethyl)cyclopropylidene]-methyl}purine]

- IC50 (HSV-1): 39 µM
Structure (SMILES): Nc1nc2c(ncn2/C=C2\CC2(CO)CO)c(=O)[nH]1 [Compound 2c, (E)-9-{[2,2-Bis-(hydroxymethyl)cyclopropylidene]methyl}-guanine]
- CC50 [1]: > 100 µM
- IC50 (μM) KB (growth) (KB cells; human): >100 µM
- IC50 (HCMV): > 100 µM

- melting point: 219 to 220 °C
Structure (SMILES): Nc1nc(N)c2ncn(/C=C3\CC3(CO)CO)c2n1 [Compound 2o, (E)-2,6-Diamino-9-{[2,2-bis-(hydroxymethyl)cyclopropylidene]-methyl}purine]

- IC50 (HSV-1): > 100 µM
- melting point: 249 to 250 °C
Structure (SMILES): Nc1nc(N)c2ncn(/C=C3/CC3(CO)CO)c2n1 [Compound 1o, (Z)-2,6-Diamino-9-{[2,2-bis-(hydroxymethyl)cyclopropylidene]-methyl}-purine]
- CC50 [1]: > 100 µM
- IC50 (μM) KB (growth) (KB cells; human): >100 µM
- IC50 (HCMV): 15 µM

- melting point: 164 to 165 °C
Structure (SMILES): Nc1nc(NC2CC2)c2ncn(/C=C3\CC3(CO)CO)c2n1 [Compound 2h, (E)-2-Amino-6-cyclopropylamino-9-{[2,2-bis-(hydroxymethyl)-cyclopropylidene]methyl}purine]

Further lines, the compound ahead of its results:

Structure (SMILES): Nc1nc2c(ncn2COCCO)c(=O)[nH]1 [Acyclovir, reference compound]
- IC50 (HSV-1): 0.15 µM
- IC50 (μM) KB (growth) (KB cells; cytotoxicity, KB cell growth): >100 ^b μM

Structure (SMILES): Nc1ncnc2c1ncn2/C=C1/CC1(CO)CO [Compound 1a, (Z)-9-{(2,2-Bis-(hydroxymethyl)cyclopropylidene)methyl}-adenine]
- CC50 [1]: > 100 µM
- IC50 (HSV-1): 50 µM
- IC50 (μM) KB (growth) (KB cells; human): >100 µM
- IC50 (HCMV): 3.6 µM

Structure (SMILES): Cc1cn(/C=C2/CC2(CO)CO)c(=O)[nH]c1=O [Compound 1f, (Z)-1-{[2,2-Bis-(hydroxymethyl)cyclopropylidene]methyl}-thymine]
- CC50 [1]: > 100 µM
- IC50 (HSV-1): 10 µM
- IC50 (μM) KB (growth) (KB cells; human): >100 µM
- IC50 (HCMV): > 100 µM

Structure (SMILES): Nc1nc(O)c2ncn(COC(CO)CO)c2n1 [Ganciclovir, reference compound]
- CC50 [1]: > 100 µM
- IC50 (HCMV): 4.1 µM

Structure (SMILES): Nc1nc2c(ncn2/C=C2/CC2(CO)CO)c(=O)[nH]1 [Compound 1c, (Z)-9-{[2,2-Bis-(hydroxymethyl)cyclopropylidene]methyl}-guanine]
- CC50 [1]: > 100 µM
- IC50 (HSV-1): > 100 µM
- IC50 (μM) KB (growth) (KB cells; human): >100 µM
- IC50 (HCMV): 0.46 µM

Structure (SMILES): Nc1ccn(/C=C2/CC2(CO)CO)c(=O)n1 [Compound 1e, (Z)-1-{[2,2-Bis-(hydroxymethyl)cyclopropylidene]methyl}-cytosine]
- CC50 [1]: > 100 µM
- IC50 (HSV-1): > 100 µM
- IC50 (μM) KB (growth) (KB cells; human): >100 µM
- IC50 (HCMV): 32 µM
- melting point: 250 to 253 °C
